In ChEMBL document CHEMBL4346741, “Synthesis, pharmacological evaluation, and mechanistic study of adefovir mixed phosphonate derivatives bearing cholic acid and l-amino acid moieties for the treatment of HBV” (Bioorg Med Chem, 2019):

Key:
[1] = system: HepG2 2.2.15; test: Cytotoxicity against human HepG2.2.15 cells assessed as reduction in cell viability incubated for 12 hrs followed by replacement of fresh medium containing compound and measured after 2 days by CCK-8 assay; format: functional
[2] = system: Hepatitis B virus; test: Antiviral activity against Hepatitis B virus infected in human HepG2.2.15 cells assessed as inhibition of viral DNA synthesis incubated for 2 days followed by replacement of fresh medium containing compound and measured at day 10 by RT-PCR analysis; format: functional, organism-based
[3] = Selectivity index, ratio of CC50 for cytotoxicity against human HepG2.2.15 cells to EC50 for HBV infected in human HepG2.2.15 cells; format: toxicity, cell-based; details: read-out: Ratio CC50/EC50
[4] = substrate: [H][C@@]12C[C@H](O)CC[C@]1(C)[C@@]1([H])CC[C@@]3(C)[C@@]([H])(CC[C@]3([H])[C@H](C)CCC(=O)OCCCOP(=O)(COCCn3cnc4c(N)ncnc43)OCCCOC(=O)[C@H](N)[C@@H](C)CC)[C@]1([H])[C@@H](O)C2; test: (§1) Substrate activity at human NTCP expressed in HEK293 cells harboring pEGFP assessed as Km for transporter-mediated drug uptake measured for 30 mins in presence of sodium chloride by UPLC-MS/MS analysis; format: cell-based
[5] = substrate: [H][C@@]12C[C@H](O)CC[C@]1(C)[C@@]1([H])CC[C@@]3(C)[C@@]([H])(CC[C@]3([H])[C@H](C)CCC(=O)OCCCOP(=O)(COCCn3cnc4c(N)ncnc43)OCCCOC(=O)[C@@H](C)N)[C@]1([H])[C@@H](O)C2; test: as §1; format: cell-based
[6] = substrate: [H][C@@]12C[C@H](O)CC[C@]1(C)[C@@]1([H])CC[C@@]3(C)[C@@]([H])(CC[C@]3([H])[C@H](C)CCC(=O)OCCCOP(=O)(COCCn3cnc4c(N)ncnc43)OCCCOC(=O)[C@H](N)CC(C)C)[C@]1([H])[C@@H](O)C2; test: as §1; format: cell-based
[7] = substrate: [H][C@@]12C[C@H](O)CC[C@]1(C)[C@@]1([H])CC[C@@]3(C)[C@@]([H])(CC[C@]3([H])[C@H](C)CCC(=O)OCCCOP(=O)(COCCn3cnc4c(N)ncnc43)OCCCOC(=O)[C@H](N)C(C)C)[C@]1([H])[C@@H](O)C2; test: as §1; format: cell-based

Molecule | CC50 [1] [µM] | EC50 [2] [µM] | selectivity ratio [3] | further results
CC(C)C[C@H](N)C(=O)SCCCOP(=O)(COCCn1cnc2c(N)ncnc21)OCCCOC(=O)CC[C@@H](C)[C@H]1CC[C@H]2[C@@H]3[C@@H](O)C[C@@H]4C[C@H](O)CC[C@]4(C)[C@H]3CC[C@]12C (some centres undefined) | 2070 | 14.8 | 140 | –
C[C@H](CCC(=O)OCCCOP(=O)(COCCn1cnc2c(N)ncnc21)OCCCOC(=O)[C@@H](C)N)[C@H]1CC[C@H]2[C@@H]3CC[C@@H]4C[C@H](O)CC[C@]4(C)[C@H]3C[C@H](O)[C@]12C (some centres undefined) | 1050 | 21.5 | 48.8 | –
CC(C)C[C@@H](N)C(=O)OCCCOP(=O)(COCCn1cnc2c(N)ncnc21)OCCCOC(=O)CC[C@@H](C)[C@H]1CC[C@H]2[C@@H]3CC[C@@H]4C[C@H](O)CC[C@]4(C)[C@H]3C[C@H](O)[C@]12C (some centres undefined) | 876 | 9.77 | 89.7 | –
CC(C)[C@@H](N)C(=O)OCCCOP(=O)(COCCn1cnc2c(N)ncnc21)OCCCOC(=O)CC[C@@H](C)[C@H]1CC[C@H]2[C@@H]3CC[C@@H]4C[C@H](O)CC[C@]4(C)[C@H]3C[C@H](O)[C@]12C (some centres undefined) | 666 | 11.2 | 59.2 | –
CC(C)[C@H](N)C(=O)SCCCOP(=O)(COCCn1cnc2c(N)ncnc21)OCCCOC(=O)CC[C@@H](C)[C@H]1CC[C@H]2[C@@H]3CC[C@@H]4C[C@H](O)CC[C@]4(C)[C@H]3C[C@H](O)[C@]12C (some centres undefined) | 1020 | 16.4 | 62.5 | –
C[C@H](CCC(=O)OCCCOP(=O)(COCCn1cnc2c(N)ncnc21)OCCCOC(=O)[C@@H](C)N)[C@H]1CC[C@H]2[C@@H]3[C@@H](O)C[C@@H]4C[C@H](O)CC[C@]4(C)[C@H]3CC[C@]12C (some centres undefined) | 489 | 5.44 | 90 | –
CC(C)[C@@H](N)C(=O)OCCCOP(=O)(COCCn1cnc2c(N)ncnc21)OCCCOC(=O)CC[C@@H](C)[C@H]1CC[C@H]2[C@@H]3[C@@H](O)C[C@@H]4C[C@H](O)CC[C@]4(C)[C@H]3CC[C@]12C (some centres undefined) | 407 | 3.34 | 122 | –
CC[C@H](C)[C@@H](N)C(=O)OCCCOP(=O)(COCCn1cnc2c(N)ncnc21)OCCCOC(=O)CC[C@@H](C)[C@H]1CC[C@H]2[C@@H]3[C@@H](O)C[C@@H]4C[C@H](O)CC[C@]4(C)[C@H]3CC[C@]12C (some centres undefined) | 378 | 0.65 | 528 | –
C[C@H](CCC(=O)OCCCOP(=O)(COCCn1cnc2c(N)ncnc21)OCCCSC(=O)[C@@H](N)Cc1ccccc1)[C@H]1CC[C@H]2[C@@H]3CC[C@@H]4C[C@H](O)CC[C@]4(C)[C@H]3C[C@H](O)[C@]12C (some centres undefined) | 789 | 18.8 | 41.9 | –
C[C@H](CCC(=O)OCCCOP(=O)(COCCn1cnc2c(N)ncnc21)OCCCSC(=O)[C@@H](N)Cc1ccccc1)[C@H]1CC[C@H]2[C@@H]3[C@@H](O)C[C@@H]4C[C@H](O)CC[C@]4(C)[C@H]3CC[C@]12C (some centres undefined) | 3040 | 29.4 | 103 | –
CC[C@H](C)[C@@H](N)C(=O)OCCCOP(=O)(COCCn1cnc2c(N)ncnc21)OCCCOC(=O)CC[C@@H](C)[C@H]1CC[C@H]2[C@@H]3CC[C@@H]4C[C@H](O)CC[C@]4(C)[C@H]3C[C@H](O)[C@]12C (some centres undefined) | 1880 | 44.1 | 42.5 | –
CC(C)[C@H](N)C(=O)SCCCOP(=O)(COCCn1cnc2c(N)ncnc21)OCCCOC(=O)CC[C@@H](C)[C@H]1CC[C@H]2[C@@H]3[C@@H](O)C[C@@H]4C[C@H](O)CC[C@]4(C)[C@H]3CC[C@]12C (some centres undefined) | 1840 | 97 | 19 | –
Hepatic sodium/bile acid cotransporter (Homo sapiens) (protein) MEAHNASAPFNFTLPPNFGKRPTDLALSVILVFMLFFIMLSLGCTMEFSKIKAHLWKPKGLAIALVAQYGIMPLTAFVLGKVFRLKNIEALAILVCGCSPGGNLSNVFSLAMKGDMNLSIVMTTCSTFCALGMMPLLLYIYSRGIYDGDLKDKVPYKGIVISLVLVLIPCTIGIVLKSKRPQYMRYVIKGGMIIILLCSVAVTVLSAINVGKSIMFAMTPLLIATSSLMPFIGFLLGYVLSALFCLNGRCRRTVSMETGCQNVQLCSTILNVAFPPEVIGPLFFFPLLYMIFQLGEGLLLIAIFWCYEKFKTPKDKTKMIYTAATTEETIPGALGNGTYKGEDCSPCTA | – | – | – | Km [4]: 102 µM; Vmax [4]: 6.86 µmol/min/mg; Km [5]: 48.2 µM; Vmax [5]: 8.28 µmol/min/mg; Km [6]: 45.5 µM; Vmax [6]: 9.61 µmol/min/mg; Km [7]: 113 µM; Vmax [7]: 7.95 µmol/min/mg
